Biological target: T1, human Fatty Acid Synthase (Homo sapiens, UniProt P49327)
T1 construct: made in house
Test: Human FAS enzyme assay (decrease in NADPH fluorescence)
Type: biochemical
Details: for inhibition at 100 µM: % inhibition at a concentration of 100 μmolar; for IC50, inhibition of human Fatty Acid Synthase: FAS enzyme assay, IC50 from fitted sigmoid curves
How it was run: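 In-house human FAS was preincubated with compound and NADPH for 15 min at room temperature in 0.1 M Tris pH 7.5 with EDTA, glutathione and BSA. Malonyl CoA and acetyl CoA (500 μM and 150 μM in the added mix) were then added for 60 min. IC50 came from time-zero-subtracted NADPH fluorescence (340/460 nm).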

T1 sequence (P49327 whole entry): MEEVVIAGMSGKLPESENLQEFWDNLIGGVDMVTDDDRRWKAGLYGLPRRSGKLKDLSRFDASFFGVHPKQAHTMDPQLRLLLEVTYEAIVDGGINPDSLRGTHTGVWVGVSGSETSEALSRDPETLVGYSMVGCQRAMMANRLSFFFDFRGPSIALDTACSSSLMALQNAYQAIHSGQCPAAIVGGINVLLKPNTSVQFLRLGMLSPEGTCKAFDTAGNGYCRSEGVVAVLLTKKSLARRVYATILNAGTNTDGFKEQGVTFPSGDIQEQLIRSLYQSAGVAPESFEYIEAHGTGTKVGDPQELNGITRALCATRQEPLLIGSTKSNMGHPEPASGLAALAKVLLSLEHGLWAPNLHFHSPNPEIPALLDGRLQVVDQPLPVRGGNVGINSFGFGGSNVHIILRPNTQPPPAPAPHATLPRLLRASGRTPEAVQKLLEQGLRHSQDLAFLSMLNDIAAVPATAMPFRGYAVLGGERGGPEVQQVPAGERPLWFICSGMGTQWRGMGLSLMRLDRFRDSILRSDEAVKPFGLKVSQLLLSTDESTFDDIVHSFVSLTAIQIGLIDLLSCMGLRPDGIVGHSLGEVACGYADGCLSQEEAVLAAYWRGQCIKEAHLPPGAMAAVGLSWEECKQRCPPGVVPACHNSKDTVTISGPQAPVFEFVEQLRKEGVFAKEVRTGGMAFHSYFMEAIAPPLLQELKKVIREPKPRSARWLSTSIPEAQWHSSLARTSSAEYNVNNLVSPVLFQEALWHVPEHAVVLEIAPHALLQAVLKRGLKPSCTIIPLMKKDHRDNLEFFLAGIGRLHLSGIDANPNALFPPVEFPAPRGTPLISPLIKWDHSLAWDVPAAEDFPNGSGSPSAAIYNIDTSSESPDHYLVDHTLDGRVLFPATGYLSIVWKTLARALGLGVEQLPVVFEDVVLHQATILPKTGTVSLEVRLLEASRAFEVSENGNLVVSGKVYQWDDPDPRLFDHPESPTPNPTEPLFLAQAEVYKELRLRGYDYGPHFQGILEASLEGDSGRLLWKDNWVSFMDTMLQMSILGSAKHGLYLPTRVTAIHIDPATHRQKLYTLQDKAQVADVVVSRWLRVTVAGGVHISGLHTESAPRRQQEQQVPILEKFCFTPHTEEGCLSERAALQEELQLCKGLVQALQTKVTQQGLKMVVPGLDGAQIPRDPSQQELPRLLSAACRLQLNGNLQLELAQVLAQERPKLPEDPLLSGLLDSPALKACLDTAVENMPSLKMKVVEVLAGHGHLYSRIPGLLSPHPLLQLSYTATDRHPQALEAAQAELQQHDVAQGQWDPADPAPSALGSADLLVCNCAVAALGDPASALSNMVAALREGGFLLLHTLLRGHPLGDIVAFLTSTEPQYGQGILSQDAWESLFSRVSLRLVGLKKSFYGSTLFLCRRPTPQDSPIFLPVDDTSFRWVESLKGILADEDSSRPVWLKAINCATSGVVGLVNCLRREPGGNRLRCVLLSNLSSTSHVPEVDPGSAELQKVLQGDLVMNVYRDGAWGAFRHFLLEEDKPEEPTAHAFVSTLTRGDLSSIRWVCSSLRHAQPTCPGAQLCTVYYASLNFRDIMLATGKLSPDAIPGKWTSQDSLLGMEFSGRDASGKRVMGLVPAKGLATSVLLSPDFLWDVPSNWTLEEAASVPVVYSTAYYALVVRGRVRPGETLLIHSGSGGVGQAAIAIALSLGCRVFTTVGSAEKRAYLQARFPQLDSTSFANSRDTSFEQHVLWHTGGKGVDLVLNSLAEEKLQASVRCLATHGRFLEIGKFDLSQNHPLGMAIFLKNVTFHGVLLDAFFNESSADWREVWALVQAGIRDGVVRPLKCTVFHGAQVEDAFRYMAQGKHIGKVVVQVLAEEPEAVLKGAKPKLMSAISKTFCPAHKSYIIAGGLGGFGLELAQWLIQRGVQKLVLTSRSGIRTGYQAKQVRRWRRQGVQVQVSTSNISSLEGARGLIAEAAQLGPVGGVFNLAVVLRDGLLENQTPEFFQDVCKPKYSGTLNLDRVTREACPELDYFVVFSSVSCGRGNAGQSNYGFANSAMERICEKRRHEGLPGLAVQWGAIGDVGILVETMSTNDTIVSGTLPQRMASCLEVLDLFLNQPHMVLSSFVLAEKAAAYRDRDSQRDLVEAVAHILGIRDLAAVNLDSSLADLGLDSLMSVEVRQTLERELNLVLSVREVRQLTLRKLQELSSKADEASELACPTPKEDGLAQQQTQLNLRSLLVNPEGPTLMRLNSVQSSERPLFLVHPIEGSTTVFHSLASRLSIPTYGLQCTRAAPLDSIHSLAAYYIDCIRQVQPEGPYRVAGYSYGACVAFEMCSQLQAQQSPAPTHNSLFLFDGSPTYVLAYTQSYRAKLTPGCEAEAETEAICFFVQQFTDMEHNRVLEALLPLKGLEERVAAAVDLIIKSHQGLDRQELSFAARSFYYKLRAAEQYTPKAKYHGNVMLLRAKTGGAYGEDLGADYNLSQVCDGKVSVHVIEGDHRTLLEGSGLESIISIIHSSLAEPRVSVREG

inhibition at 100 µM	SMILES	IC50, inhibition of human Fatty Acid Synthase
97.2%	CCC(=O)N1CCCC(NC(=O)Nc2cc(C(=O)N3CCC(c4ccc(C#N)cc4)CC3)ccc2C)C1 (stereo not shown) [Example 295, 3-[5-[4-(4-cyanophenyl)piperidine-1-carbonyl]-2-methyl-phenyl]-1-(1-propanoyl-3-piperidyl)urea]	
96.2%	Cc1ccc(C(=O)N2CCC(c3ccc(C#N)cc3)CC2)cc1NC(=O)NC(C)CO (stereo not shown) [Example 182, 1-[5-[4-(4-cyanophenyl)piperidine-1-carbonyl]-2-methyl-phenyl]-3-(1-hydroxypropan-2-yl)urea]	
85.7%	Cc1ccc(C(=O)N2CCC(c3ccc(C#N)cc3)CC2)cc1NC(=O)N[C@@H](COC(C)(C)C)C(N)=O [Example 78, (2S)-2-[[5-[4-(4-cyanophenyl)piperidine-1-carbonyl]-2-methyl-phenyl]carbamoylamino]-3-[(2-methylpropan-2-yl)oxy]propanamide]	
81.2%	Cc1ccc(C(=O)N2CCC(O)(c3ccc(C#N)cc3)CC2)cc1NC(=O)NC(C)C [Example 50, 1-[5-[4-(4-cyanophenyl)-4-hydroxy-piperidine-1-carbonyl]-2-methyl-phenyl]-3-propan-2-yl-urea]	
87.2%	Cc1ccc(C(=O)N2CCC(c3ccc(C#N)cc3)CC2)cc1NC(=O)NC(C)(C)CNc1ccccc1 [Example 59, 3-(1-anilino-2-methyl-propan-2-yl)-1-[5-[4-(4-cyanophenyl)piperidine-1-carbonyl]-2-methyl-phenyl]urea]	
95.6%	Cc1cc(CNC(=O)Nc2cc(C(=O)N3CCC(c4ccc(C#N)cc4)CC3)ccc2C)[nH]n1 [Example 292, 1-[5-[4-(4-cyanophenyl)piperidine-1-carbonyl]-2-methyl-phenyl]-3-[(5-methyl-2H-pyrazol-3-yl)methyl]urea]	
77.4%	Cc1ccc(NC(=O)NCc2cccc(C#N)c2)cc1C(=O)N1CCC(c2ccc(C#N)cc2)CC1 [Example 47, 3-[(3-cyanophenyl)methyl]-1-[3-[4-(4-cyanophenyl)piperidine-1-carbonyl]-4-methyl-phenyl]urea]	
88.2%	Cc1ccc(C(=O)N2CCC(c3ccc(C#N)cc3)CC2)cc1NC(=O)NCC(C)(C)NC(=O)C(C)(C)C [Example 205, N-[1-[[5-[4-(4-cyanophenyl)piperidine-1-carbonyl]-2-methyl-phenyl]carbamoylamino]-2-methyl-propan-2-yl]-2,2-dimethyl-propanamide]	
101%	Cc1ccc(C(=O)N2CCC(c3ccc(C#N)cc3)CC2)cc1NC(N)=O [Example 366, [5-[4-(4-cyanophenyl)piperidine-1-carbonyl]-2-methylphenyl]urea]	
84.7%	CSc1ccc(C(=O)N2CCC(c3ccc(C#N)cc3)CC2)cc1NC(=O)NCc1ccccc1 [Example 363, 3-benzyl-1-[5-[4-(4-cyanophenyl)piperidine-1-carbonyl]-2-methylsulfanylphenyl]urea]	
	COc1ccc(NC(=O)NC(C)C)cc1C(=O)N1CCC(c2ccc(C#N)cc2)CC1 [3-[3-[4-(4-cyanophenyl)piperidine-1-carbonyl]-4-methoxyphenyl]-1-propan-2-ylurea]	do not have IC50s in the range of about 0.001 μM to about 30 μM
60.8%	CCOC(=O)C(C)NC(=O)Nc1cc(C(=O)N2CCC(c3ccc(C#N)cc3)CC2)ccc1C (stereo not shown) [Example 385, Ethyl 2-[[5-[4-(4-cyanophenyl)piperidine-1-carbonyl]-2-methylphenyl]carbamoylamino]-propanoate]	
96.5%	Cc1ccc(C(=O)N2CCC(c3ccc(C#N)cc3)CC2)cc1NC(=O)N1CC(O)C1 [Example 345, N-[5-[4-(4-cyanophenyl)piperidine-1-carbonyl]-2-methyl-phenyl]-3-hydroxy-azetidine-1-carboxamide]	
93.4%	Cc1ccc(C(=O)N2CCC(c3ccc(C#N)cc3)CC2)cc1NC(=O)NCCc1cccs1 [Example 63, 1-[5-[4-(4-cyanophenyl)piperidine-1-carbonyl]-2-methyl-phenyl]-3-(2-thiophen-2-ylethyl)urea]	
78%	Cc1ccc(C(=O)N2CCC(c3ccc(C(=O)N(C)C)cc3)CC2)cc1NC(=O)NC(C)C [Example 124, N,N-dimethyl-4-[1-[4-methyl-3-(propan-2-ylcarbamoylamino)benzoyl]-4-piperidyl]benzamide]	
95.6%	Cc1ccc(C(=O)N2CCC(c3ccc(C#N)cc3)CC2)cc1NC(=O)NC1CCS(=O)(=O)C1 (stereo not shown) [Example 169, 1-[5-[4-(4-cyanophenyl)piperidine-1-carbonyl]-2-methyl-phenyl]-3-(1,1-dioxothiolan-3-yl)urea]	
73.6%	Cc1ccc(C(=O)N2CCC(c3ccc(C#N)cc3)CC2)cc1NC(=O)NC1CONC1=O (stereo not shown) [Example 383, 1-[5-[4-(4-cyanophenyl)piperidine-1-carbonyl]-2-methylphenyl]-3-(3-oxo-1,2-oxazolidin-4-yl)urea]	

inhibition at 100 µM	SMILES	IC50, inhibition of human Fatty Acid Synthase
88.7%	Cc1ccc(C(=O)N2CCC(c3ccc(C#N)cc3)CC2)cc1NC(=O)NC(C)C(C)C (stereo not shown) [Example 229, 1-[5-[4-(4-cyanophenyl)piperidine-1-carbonyl]-2-methyl-phenyl]-3-(3-methylbutan-2-yl)urea]	
103%	Cc1ccc(C(=O)N2CCC(c3ccc(C#N)cc3)CC2)cc1NC(=O)NCc1ccncn1 [Example 266, 1-[5-[4-(4-cyanophenyl)piperidine-1-carbonyl]-2-methyl-phenyl]-3-(pyrimidin-4-ylmethyl)urea]	
92.1%	Cc1ccc(C(=O)N2CCC(c3ccc(C#N)cc3)CC2)cc1NC(=O)NCC1CCCO1 (stereo not shown) [Example 151, 1-[5-[4-(4-cyanophenyl)piperidine-1-carbonyl]-2-methyl-phenyl]-3-(oxolan-2-ylmethyl)urea]	
	Cc1ccc(C(=O)N2CCC(O)(c3ccccc3)CC2)cc1NC(=O)NC(C)C [1-[5-(4-hydroxy-4-phenylpiperidine-1-carbonyl)-2-methylphenyl]-3-propan-2-ylurea]	do not have IC50s in the range of about 0.001 μM to about 30 μM
90.5%	Cc1ccc(C(=O)N2CCC(c3ccc(C#N)cc3)CC2)cc1NC(=O)N1CCN(S(C)(=O)=O)CC1 [Example 322, N-[5-[4-(4-cyanophenyl)piperidine-1-carbonyl]-2-methyl-phenyl]-4-methylsulfonyl-piperazine-1-carboxamide]	
95%	CCCOCCNC(=O)Nc1cc(C(=O)N2CCC(c3ccc(C#N)cc3)CC2)ccc1C [Example 164, 3-[5-[4-(4-cyanophenyl)piperidine-1-carbonyl]-2-methyl-phenyl]-1-(2-propoxyethyl)urea]	
82.5%	COCc1ccc(C(=O)N2CCC(c3ccc(C#N)cc3)CC2)cc1NC(=O)NC(C)C [Example 365, 3-[5-[4-(4-cyanophenyl)piperidine-1-carbonyl]-2-(methoxymethyl)phenyl]-1-propan-2-ylurea]	
76.3%	Cc1ccc(C(=O)N2CCC(c3ccc(C#N)cc3)CC2)cc1NC(=O)N(C)CCO [Example 392, 3-[5-[4-(4-cyanophenyl)piperidine-1-carbonyl]-2-methylphenyl]-1-(2-hydroxyethyl)-1-methylurea]	
82.9%	Cc1ccc(C(=O)N2CCC(c3ccc(C#N)cc3)CC2)cc1NC(=O)NC(C)(C)CO [Example 190, 1-[5-[4-(4-cyanophenyl)piperidine-1-carbonyl]-2-methyl-phenyl]-3-(1-hydroxy-2-methyl-propan-2-yl)urea]	
	Cc1ccc(C(=O)N2CCC(c3ccc(C#N)cc3)CC2)cc1NC(=O)N(C)CCNC(=O)C(C)C [N-[2-[[5-[4-(4-cyanophenyl)piperidine-1-carbonyl]-2-methylphenyl]carbamoyl-methylamino]ethyl]-2-methylpropanamide]	do not have IC50s in the range of about 0.001 μM to about 30 μM
90.1%	Cc1csc(CNC(=O)Nc2cc(C(=O)N3CCC(c4ccc(C#N)cc4)CC3)ccc2C)n1 [Example 264, 1-[5-[4-(4-cyanophenyl)piperidine-1-carbonyl]-2-methyl-phenyl]-3-[(4-methyl-1,3-thiazol-2-yl)methyl]urea]	
95.3%	Cc1ccc(C(=O)N2CCC(c3ccc(C#N)cc3)CC2)cc1NC(=O)NCCc1ccccn1 [Example 60, 1-[5-[4-(4-cyanophenyl)piperidine-1-carbonyl]-2-methyl-phenyl]-3-(2-pyridin-2-ylethyl)urea]	
90.4%	Cc1ccc(C(=O)N2CCC(c3ccc(C#N)cc3)CC2)cc1NC(=O)NC1CCCCC1O (racemic) [Example 187, (RS) 1-[5-[4-(4-cyanophenyl)piperidine-1-carbonyl]-2-methyl-phenyl]-3-(2-hydroxycyclohexyl)urea]	
83.8%	Cc1ccc(C(=O)N2CCC(c3ccc(C#N)cc3)CC2)cc1NC(=O)NCC(C)C [Example 42, 1-[5-[4-(4-cyanophenyl)piperidine-1-carbonyl]-2-methyl-phenyl]-3-(2-methylpropyl)urea]	
73.3%	CCOCC1CCCN1C(=O)Nc1cc(C(=O)N2CCC(c3ccc(C#N)cc3)CC2)ccc1C (stereo not shown) [Example 399, N-[5-[4-(4-cyanophenyl)piperidine-1-carbonyl]-2-methylphenyl]-2-(ethoxymethyl)pyrrolidine-1-carboxamide]	
90.6%	N#Cc1ccc(C2CCN(C(=O)c3ccc(C(F)(F)F)c(NC(=O)NCc4ccccc4)c3)CC2)cc1 [Example 280, 1-benzyl-3-[5-[4-(4-cyanophenyl)piperidine-1-carbonyl]-2-(trifluoromethyl)phenyl]urea]	
81.7%	Cc1ccc(C(=O)N2CCC(c3ccc(C#N)cc3)CC2)cc1NC(=O)NCCC1CCCN1C (stereo not shown) [Example 144, 1-[5-[4-(4-cyanophenyl)piperidine-1-carbonyl]-2-methyl-phenyl]-3-[2-(1-methylpyrrolidin-2-yl)ethyl]urea]	
